Data on two molecules can be found in patent US20120189544A1, “GASTROINTESTINAL DISEASE OR DISORDER IMAGING AND TREATMENT” (SALK INSTITUTE FOR BIOLOGICAL STUDIES, priority 2009, published 2012).

The test system of assay [1] is PTEN-deficient glioblastomas and metastatic renal cell carcinomas. The following applies: patients with PTEN-deficient glioblastomas and metastatic renal cell carcinomas; cited from earlier work.
The subject of assay [2] is pre-existing GI polyps in Lkb1^+/− mice.
Experimental: Mouse Colony Maintenance, Treatment Regimen and Polyp Measurement. Lkb1^+/+ and Lkb1^+/− mice, maintained on an FVB/N genetic background, were monitored for the development of gastrointestinal polyps. Mice with clinical signs of disease were euthanized and necropsied. The groups were vehicle treated or RAPA treated mice. […] Polyps were scored and total polyp burden was measured).
After two months of treatment, polyp size and number in each mouse were quantitated.

For `CO[C@H]1C[C@@H]2CC[C@@H](C)[C@@](O)(O2)C(=O)C(=O)N2CCCC[C@H]2C(=O)O[C@H]([C@H](C)C[C@@H]2CC[C@@H](OC(=O)C(C)(CO)CO)[C@H](OC)C2)CC(=O)[C@H](C)/C=C(\C)[C@@H](O)[C@@H](OC)C(=O)[C@H](C)C[C@H](C)/C=C/C=C/C=C/1C` [Temsirolimus, temsirolimus], the clinical outcome in assay [1] is “palliative success”.
Consider `CO[C@H]1C[C@@H]2CC[C@@H](C)[C@@](O)(O2)C(=O)C(=O)N2CCCC[C@H]2C(=O)O[C@H]([C@H](C)C[C@@H]2CC[C@@H](O)[C@H](OC)C2)CC(=O)[C@H](C)/C=C(\C)[C@@H](O)[C@@H](OC)C(=O)[C@H](C)C[C@H](C)/C=C/C=C/C=C/1C` [rapamycin], for which the “reduction in the overall mass of polyps” value in assay [2] (Lkb1+/− mice treated vs untreated with rapamycin, two months) amounted to 80%. Moreover, in assay [2] (Lkb1+/− mice, 10 mg/kg rapamycin i.p., two months, n=10, VEH 9.6±5.5, p=0.00026), the “mean polyp burden (total polyp burden)” value was 2.0±1.2. The mean polyp size in assay [2] (Lkb1+/− mice, n=10, VEH 4.4±0.8, p<0.0001) turned out to be 1.2±0.9. In assay [2] (Lkb1+/− mice, visible polyps between 1 and 5 mm scored, n=10, VEH 5.3±1.8, p=0.00022), the mean polyp number is listed as 2.8±1.4.
